Measured values: ChEMBL document CHEMBL1909046, “DrugMatrix in vitro pharmacology data”

Biological target: T1, Caspase-1 (Homo sapiens, UniProt P29466);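 note: Caspase-1 enzyme inhibition assay with a peptide substrate; in other assays of this panel Not Active means under 50% inhibition at 10 µM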
T1 sequence (P29466 whole entry): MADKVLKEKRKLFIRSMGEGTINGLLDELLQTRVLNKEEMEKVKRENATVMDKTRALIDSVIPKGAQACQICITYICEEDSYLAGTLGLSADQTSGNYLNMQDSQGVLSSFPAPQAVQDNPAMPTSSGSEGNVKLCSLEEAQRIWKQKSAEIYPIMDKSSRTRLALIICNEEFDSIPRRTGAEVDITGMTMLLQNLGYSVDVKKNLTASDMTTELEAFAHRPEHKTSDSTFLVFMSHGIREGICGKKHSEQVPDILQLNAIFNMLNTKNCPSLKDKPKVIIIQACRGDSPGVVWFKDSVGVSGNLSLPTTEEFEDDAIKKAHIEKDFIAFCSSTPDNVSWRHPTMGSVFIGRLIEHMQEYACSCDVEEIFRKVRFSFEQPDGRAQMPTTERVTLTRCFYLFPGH
Design: species or system Escherichia coli
Conditions: not given
In the case of `O=c1[nH]c(=O)n([C@H]2C[C@H](O)[C@@H](CO)O2)cc1F` [FLOXURIDINE], the IC50 is reported as “Not Active”.
In the case of `COC(=O)Nc1nc2cc(C(=O)c3ccc(F)cc3)ccc2[nH]1` [FLUBENDAZOLE], the IC50 is reported as “Not Active”.
For `CC(=O)OCC(=O)[C@@]1(O)CC[C@H]2[C@@H]3CCC4=CC(=O)CC[C@]4(C)[C@@]3(F)[C@@H](O)C[C@@]21C` [FLUDROCORTISONE ACETATE], the IC50 was “Not Active”.
With `CCOC(=O)c1ncn2c1CN(C)C(=O)c1cc(F)ccc1-2` [FLUMAZENIL] the IC50 was “Not Active”.
In the case of `CC(=O)OCC(=O)[C@@]12OC(C)(C)O[C@@H]1C[C@H]1[C@@H]3C[C@H](F)C4=CC(=O)C=C[C@]4(C)[C@@]3(F)[C@@H](O)C[C@@]12C` [FLUOCINONIDE], the IC50 is reported as “Not Active”.

Tested on: not listed separately
Experiment: DRUGMATRIX: Tumor Necrosis Factor (TNF), Non-Selective radioligand binding (ligand: [125I] TNF-alpha)
Format: cell membranes, Membrane
Conditions: u-937; Not Active = under 50% inhibition at 10 µM
In the case of `O=c1[nH]c(=O)n([C@H]2C[C@H](O)[C@@H](CO)O2)cc1F` [FLOXURIDINE], the IC50 is reported as “Not Active” and the Ki is reported as “Not Active”.
With `COC(=O)Nc1nc2cc(C(=O)c3ccc(F)cc3)ccc2[nH]1` [FLUBENDAZOLE] the IC50 was “Not Active” and the Ki was “Not Active”.
For `CC(=O)OCC(=O)[C@@]1(O)CC[C@H]2[C@@H]3CCC4=CC(=O)CC[C@]4(C)[C@@]3(F)[C@@H](O)C[C@@]21C` [FLUDROCORTISONE ACETATE], the IC50 was “Not Active” and the Ki was “Not Active”.
In the case of `CCOC(=O)c1ncn2c1CN(C)C(=O)c1cc(F)ccc1-2` [FLUMAZENIL], the IC50 is reported as “Not Active” and the Ki is reported as “Not Active”.
For `CC(=O)OCC(=O)[C@@]12OC(C)(C)O[C@@H]1C[C@H]1[C@@H]3C[C@H](F)C4=CC(=O)C=C[C@]4(C)[C@@]3(F)[C@@H](O)C[C@@]12C` [FLUOCINONIDE], the IC50 was “Not Active” and the Ki was “Not Active”.

Biological target: Matrix metalloproteinase-9 (Homo sapiens, UniProt P14780);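 note: inhibition of isolated MMP-9 enzyme activity toward a synthetic peptide substrate, from the DrugMatrix protease screening panel; in other assays of this panel Not Active means under 50% inhibition at 10 µM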
Sequence (P14780 whole entry): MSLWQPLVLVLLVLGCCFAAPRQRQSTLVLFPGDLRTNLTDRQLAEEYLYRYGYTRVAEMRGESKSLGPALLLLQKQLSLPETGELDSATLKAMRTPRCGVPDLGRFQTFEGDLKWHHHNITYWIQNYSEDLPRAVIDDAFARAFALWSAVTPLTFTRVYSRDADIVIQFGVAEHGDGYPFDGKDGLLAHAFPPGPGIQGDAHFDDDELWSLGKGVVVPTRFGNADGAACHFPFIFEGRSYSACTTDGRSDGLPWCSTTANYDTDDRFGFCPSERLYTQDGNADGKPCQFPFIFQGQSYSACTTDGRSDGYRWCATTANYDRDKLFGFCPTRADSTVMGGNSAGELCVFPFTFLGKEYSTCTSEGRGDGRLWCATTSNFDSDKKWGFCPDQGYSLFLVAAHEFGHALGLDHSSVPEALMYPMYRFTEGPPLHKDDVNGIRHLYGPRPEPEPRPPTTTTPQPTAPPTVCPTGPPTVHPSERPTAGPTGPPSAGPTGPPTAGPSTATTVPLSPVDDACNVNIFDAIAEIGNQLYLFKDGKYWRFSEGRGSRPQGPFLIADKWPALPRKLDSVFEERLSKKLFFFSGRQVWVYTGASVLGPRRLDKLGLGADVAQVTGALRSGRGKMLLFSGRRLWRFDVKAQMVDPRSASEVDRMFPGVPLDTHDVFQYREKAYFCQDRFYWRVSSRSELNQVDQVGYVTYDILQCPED
Format: cell-based
Conditions: not given
For `O=c1[nH]c(=O)n([C@H]2C[C@H](O)[C@@H](CO)O2)cc1F` [FLOXURIDINE], the IC50 was “Not Active”.
With `COC(=O)Nc1nc2cc(C(=O)c3ccc(F)cc3)ccc2[nH]1` [FLUBENDAZOLE] the IC50 was “Not Active”.
For `CC(=O)OCC(=O)[C@@]1(O)CC[C@H]2[C@@H]3CCC4=CC(=O)CC[C@]4(C)[C@@]3(F)[C@@H](O)C[C@@]21C` [FLUDROCORTISONE ACETATE], the IC50 was “Not Active”.
For `CCOC(=O)c1ncn2c1CN(C)C(=O)c1cc(F)ccc1-2` [FLUMAZENIL], the IC50 was “Not Active”.
For `CC(=O)OCC(=O)[C@@]12OC(C)(C)O[C@@H]1C[C@H]1[C@@H]3C[C@H](F)C4=CC(=O)C=C[C@]4(C)[C@@]3(F)[C@@H](O)C[C@@]12C` [FLUOCINONIDE], the IC50 was “Not Active”.

Tested on: not listed separately
Experiment: DRUGMATRIX: Glutamate, Kainate radioligand binding (ligand: [3H] Kainic acid)
Format: cell membranes, Rattus norvegicus, Wistar, Brain, Membrane
Conditions: Not Active = under 50% inhibition at 10 µM
With `O=c1[nH]c(=O)n([C@H]2C[C@H](O)[C@@H](CO)O2)cc1F` [FLOXURIDINE] the IC50 was “Not Active” and the Ki was “Not Active”.
For `COC(=O)Nc1nc2cc(C(=O)c3ccc(F)cc3)ccc2[nH]1` [FLUBENDAZOLE], the IC50 was “Not Active” and the Ki was “Not Active”.
With `CC(=O)OCC(=O)[C@@]1(O)CC[C@H]2[C@@H]3CCC4=CC(=O)CC[C@]4(C)[C@@]3(F)[C@@H](O)C[C@@]21C` [FLUDROCORTISONE ACETATE] the IC50 was “Not Active” and the Ki was “Not Active”.
For `CCOC(=O)c1ncn2c1CN(C)C(=O)c1cc(F)ccc1-2` [FLUMAZENIL], the IC50 was “Not Active” and the Ki was “Not Active”.
For `CC(=O)OCC(=O)[C@@]12OC(C)(C)O[C@@H]1C[C@H]1[C@@H]3C[C@H](F)C4=CC(=O)C=C[C@]4(C)[C@@]3(F)[C@@H](O)C[C@@]12C` [FLUOCINONIDE], the IC50 was “Not Active” and the Ki was “Not Active”.

Biological target: Protein kinase C alpha type (Homo sapiens, UniProt P17252);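 note: inhibition of PKCalpha kinase activity measured in an enzyme assay with histone as the phosphorylation substrate; in other assays of this panel Not Active means under 50% inhibition at 10 µM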
Format: cell-based
Conditions: sf9
In the case of `O=c1[nH]c(=O)n([C@H]2C[C@H](O)[C@@H](CO)O2)cc1F` [FLOXURIDINE], the IC50 is reported as “Not Active”.
For `COC(=O)Nc1nc2cc(C(=O)c3ccc(F)cc3)ccc2[nH]1` [FLUBENDAZOLE], the IC50 was “Not Active”.
In the case of `CC(=O)OCC(=O)[C@@]1(O)CC[C@H]2[C@@H]3CCC4=CC(=O)CC[C@]4(C)[C@@]3(F)[C@@H](O)C[C@@]21C` [FLUDROCORTISONE ACETATE], the IC50 is reported as “Not Active”.
With `CCOC(=O)c1ncn2c1CN(C)C(=O)c1cc(F)ccc1-2` [FLUMAZENIL] the IC50 was “Not Active”.
In the case of `CC(=O)OCC(=O)[C@@]12OC(C)(C)O[C@@H]1C[C@H]1[C@@H]3C[C@H](F)C4=CC(=O)C=C[C@]4(C)[C@@]3(F)[C@@H](O)C[C@@]12C` [FLUOCINONIDE], the IC50 is reported as “Not Active”.

Biological target: Substance-P receptor (Homo sapiens, UniProt P25103); note: in other assays of this panel Not Active means under 50% inhibition at 10 µM
Sequence (P25103 whole entry): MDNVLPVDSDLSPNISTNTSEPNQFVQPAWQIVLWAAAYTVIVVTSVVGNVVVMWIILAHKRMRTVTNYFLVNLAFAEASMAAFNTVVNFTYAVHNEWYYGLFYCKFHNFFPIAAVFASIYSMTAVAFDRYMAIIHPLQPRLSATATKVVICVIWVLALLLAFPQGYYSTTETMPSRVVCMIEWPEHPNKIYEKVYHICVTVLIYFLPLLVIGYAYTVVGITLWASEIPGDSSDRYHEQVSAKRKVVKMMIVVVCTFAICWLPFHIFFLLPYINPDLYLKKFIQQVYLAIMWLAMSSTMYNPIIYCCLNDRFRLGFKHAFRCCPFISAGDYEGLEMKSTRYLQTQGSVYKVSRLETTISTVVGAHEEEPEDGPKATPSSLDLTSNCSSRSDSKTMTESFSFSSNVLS
Format: cell membranes, CHO, Membrane
Conditions: cho
With `O=c1[nH]c(=O)n([C@H]2C[C@H](O)[C@@H](CO)O2)cc1F` [FLOXURIDINE] the IC50 was “Not Active”.
For `COC(=O)Nc1nc2cc(C(=O)c3ccc(F)cc3)ccc2[nH]1` [FLUBENDAZOLE], the IC50 was “Not Active”.
With `CC(=O)OCC(=O)[C@@]1(O)CC[C@H]2[C@@H]3CCC4=CC(=O)CC[C@]4(C)[C@@]3(F)[C@@H](O)C[C@@]21C` [FLUDROCORTISONE ACETATE] the IC50 was “Not Active”.
In the case of `CCOC(=O)c1ncn2c1CN(C)C(=O)c1cc(F)ccc1-2` [FLUMAZENIL], the IC50 is reported as “Not Active”.
In the case of `CC(=O)OCC(=O)[C@@]12OC(C)(C)O[C@@H]1C[C@H]1[C@@H]3C[C@H](F)C4=CC(=O)C=C[C@]4(C)[C@@]3(F)[C@@H](O)C[C@@]12C` [FLUOCINONIDE], the IC50 is reported as “Not Active”.

Biological target: T2, Muscarinic acetylcholine receptor M2 (Homo sapiens, UniProt P08172); note: in other assays of this panel Not Active means under 50% inhibition at 10 µM
T2 sequence (P08172 whole entry): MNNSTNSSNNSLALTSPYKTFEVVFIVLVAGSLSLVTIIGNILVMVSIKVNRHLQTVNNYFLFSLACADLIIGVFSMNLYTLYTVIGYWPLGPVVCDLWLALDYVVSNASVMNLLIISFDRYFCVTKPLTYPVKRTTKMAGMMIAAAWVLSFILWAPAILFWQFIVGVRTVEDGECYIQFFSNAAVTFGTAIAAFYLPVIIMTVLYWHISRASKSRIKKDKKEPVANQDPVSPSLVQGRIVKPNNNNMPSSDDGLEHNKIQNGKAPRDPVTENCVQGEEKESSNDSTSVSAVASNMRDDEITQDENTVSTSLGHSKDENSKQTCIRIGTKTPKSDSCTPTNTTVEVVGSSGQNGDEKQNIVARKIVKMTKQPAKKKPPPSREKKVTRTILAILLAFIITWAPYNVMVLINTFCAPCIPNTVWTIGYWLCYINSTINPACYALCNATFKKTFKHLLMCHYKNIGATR
Format: cell membranes, CHO-K1, Membrane
Conditions: cho-k1
In the case of `O=c1[nH]c(=O)n([C@H]2C[C@H](O)[C@@H](CO)O2)cc1F` [FLOXURIDINE], the IC50 is reported as “Not Active”.
In the case of `COC(=O)Nc1nc2cc(C(=O)c3ccc(F)cc3)ccc2[nH]1` [FLUBENDAZOLE], the IC50 is reported as “Not Active”.
In the case of `CC(=O)OCC(=O)[C@@]1(O)CC[C@H]2[C@@H]3CCC4=CC(=O)CC[C@]4(C)[C@@]3(F)[C@@H](O)C[C@@]21C` [FLUDROCORTISONE ACETATE], the IC50 is reported as “Not Active”.
In the case of `CCOC(=O)c1ncn2c1CN(C)C(=O)c1cc(F)ccc1-2` [FLUMAZENIL], the IC50 is reported as “Not Active”.
For `CC(=O)OCC(=O)[C@@]12OC(C)(C)O[C@@H]1C[C@H]1[C@@H]3C[C@H](F)C4=CC(=O)C=C[C@]4(C)[C@@]3(F)[C@@H](O)C[C@@]12C` [FLUOCINONIDE], the IC50 was “Not Active”.

Biological target: T3, 3-hydroxy-3-methylglutaryl-coenzyme A reductase (Homo sapiens, UniProt P04035)
T3 sequence (P04035 whole entry): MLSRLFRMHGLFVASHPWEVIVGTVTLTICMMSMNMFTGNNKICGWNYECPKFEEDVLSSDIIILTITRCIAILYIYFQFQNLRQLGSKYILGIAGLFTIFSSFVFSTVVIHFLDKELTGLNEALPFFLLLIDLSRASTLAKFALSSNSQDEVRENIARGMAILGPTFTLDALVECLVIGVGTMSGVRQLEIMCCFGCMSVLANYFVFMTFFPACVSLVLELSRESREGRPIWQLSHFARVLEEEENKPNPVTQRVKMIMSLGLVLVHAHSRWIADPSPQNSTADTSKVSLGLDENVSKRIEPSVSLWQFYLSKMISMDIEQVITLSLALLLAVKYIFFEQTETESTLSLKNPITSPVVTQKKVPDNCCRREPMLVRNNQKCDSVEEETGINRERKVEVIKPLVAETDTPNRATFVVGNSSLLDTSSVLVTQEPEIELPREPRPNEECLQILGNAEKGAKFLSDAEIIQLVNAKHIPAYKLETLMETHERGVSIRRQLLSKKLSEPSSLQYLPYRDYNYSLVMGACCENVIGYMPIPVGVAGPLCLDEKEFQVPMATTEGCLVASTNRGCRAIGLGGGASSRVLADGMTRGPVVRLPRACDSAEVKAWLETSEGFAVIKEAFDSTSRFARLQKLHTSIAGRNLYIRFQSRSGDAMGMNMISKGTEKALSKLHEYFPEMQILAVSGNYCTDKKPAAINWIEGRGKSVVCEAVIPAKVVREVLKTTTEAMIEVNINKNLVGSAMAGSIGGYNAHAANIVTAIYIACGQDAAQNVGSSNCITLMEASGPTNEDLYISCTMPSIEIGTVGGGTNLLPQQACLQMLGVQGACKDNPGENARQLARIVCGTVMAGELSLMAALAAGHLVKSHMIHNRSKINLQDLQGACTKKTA
Design: species or system Escherichia coli
Conditions: not given
For `O=c1[nH]c(=O)n([C@H]2C[C@H](O)[C@@H](CO)O2)cc1F` [FLOXURIDINE], the IC50 was “Not Active”.
With `COC(=O)Nc1nc2cc(C(=O)c3ccc(F)cc3)ccc2[nH]1` [FLUBENDAZOLE] the IC50 was “Not Active”.
With `CC(=O)OCC(=O)[C@@]1(O)CC[C@H]2[C@@H]3CCC4=CC(=O)CC[C@]4(C)[C@@]3(F)[C@@H](O)C[C@@]21C` [FLUDROCORTISONE ACETATE] the IC50 was “Not Active”.
For `CCOC(=O)c1ncn2c1CN(C)C(=O)c1cc(F)ccc1-2` [FLUMAZENIL], the IC50 was “Not Active”.
For `CC(=O)OCC(=O)[C@@]12OC(C)(C)O[C@@H]1C[C@H]1[C@@H]3C[C@H](F)C4=CC(=O)C=C[C@]4(C)[C@@]3(F)[C@@H](O)C[C@@]12C` [FLUOCINONIDE], the IC50 was “Not Active”.

Biological target: Insulin receptor (Rattus norvegicus, UniProt P15127); note: in other assays of this panel Not Active means under 50% inhibition at 10 µM
Sequence (P15127 27-759 limits assumed): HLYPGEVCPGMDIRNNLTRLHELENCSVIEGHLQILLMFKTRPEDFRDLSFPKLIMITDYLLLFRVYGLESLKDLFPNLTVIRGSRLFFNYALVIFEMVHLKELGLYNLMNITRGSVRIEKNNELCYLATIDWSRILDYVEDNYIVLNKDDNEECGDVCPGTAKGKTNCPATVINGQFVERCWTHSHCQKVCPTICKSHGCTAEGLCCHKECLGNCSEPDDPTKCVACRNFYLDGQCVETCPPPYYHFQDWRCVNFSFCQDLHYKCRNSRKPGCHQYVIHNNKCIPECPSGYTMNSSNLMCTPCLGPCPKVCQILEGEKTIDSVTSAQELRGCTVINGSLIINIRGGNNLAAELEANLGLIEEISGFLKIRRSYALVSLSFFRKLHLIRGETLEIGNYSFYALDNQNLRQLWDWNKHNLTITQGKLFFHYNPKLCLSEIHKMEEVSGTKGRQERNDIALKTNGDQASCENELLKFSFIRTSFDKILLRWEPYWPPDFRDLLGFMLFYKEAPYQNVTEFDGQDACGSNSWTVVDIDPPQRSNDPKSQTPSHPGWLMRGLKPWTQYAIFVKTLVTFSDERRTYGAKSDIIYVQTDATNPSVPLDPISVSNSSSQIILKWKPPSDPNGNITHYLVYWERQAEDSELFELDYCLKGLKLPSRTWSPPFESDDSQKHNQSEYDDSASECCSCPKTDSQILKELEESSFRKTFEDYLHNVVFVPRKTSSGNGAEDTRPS
Sequence (P15127 764-1383 limits assumed): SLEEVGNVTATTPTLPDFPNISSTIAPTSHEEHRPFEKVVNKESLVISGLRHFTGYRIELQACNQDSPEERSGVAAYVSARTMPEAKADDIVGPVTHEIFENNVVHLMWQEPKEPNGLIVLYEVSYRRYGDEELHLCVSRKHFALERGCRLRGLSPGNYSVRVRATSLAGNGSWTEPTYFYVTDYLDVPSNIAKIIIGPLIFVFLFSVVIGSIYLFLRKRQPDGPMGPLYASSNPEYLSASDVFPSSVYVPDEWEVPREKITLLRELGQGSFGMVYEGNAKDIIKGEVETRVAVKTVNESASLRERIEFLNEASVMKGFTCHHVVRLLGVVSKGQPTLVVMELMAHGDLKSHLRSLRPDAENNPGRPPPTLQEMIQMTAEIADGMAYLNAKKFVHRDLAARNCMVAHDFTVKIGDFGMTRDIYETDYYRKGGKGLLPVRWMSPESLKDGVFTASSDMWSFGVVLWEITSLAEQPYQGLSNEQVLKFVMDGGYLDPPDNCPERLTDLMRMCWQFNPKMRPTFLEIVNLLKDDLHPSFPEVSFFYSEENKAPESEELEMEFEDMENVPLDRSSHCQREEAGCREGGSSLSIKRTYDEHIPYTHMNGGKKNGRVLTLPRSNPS
Format: cell membranes, Wistar, Liver, Membrane
Conditions: not given
For `O=c1[nH]c(=O)n([C@H]2C[C@H](O)[C@@H](CO)O2)cc1F` [FLOXURIDINE], the IC50 was “Not Active”.
For `COC(=O)Nc1nc2cc(C(=O)c3ccc(F)cc3)ccc2[nH]1` [FLUBENDAZOLE], the IC50 was “Not Active”.
With `CC(=O)OCC(=O)[C@@]1(O)CC[C@H]2[C@@H]3CCC4=CC(=O)CC[C@]4(C)[C@@]3(F)[C@@H](O)C[C@@]21C` [FLUDROCORTISONE ACETATE] the IC50 was “Not Active”.
For `CCOC(=O)c1ncn2c1CN(C)C(=O)c1cc(F)ccc1-2` [FLUMAZENIL], the IC50 was “Not Active”.
In the case of `CC(=O)OCC(=O)[C@@]12OC(C)(C)O[C@@H]1C[C@H]1[C@@H]3C[C@H](F)C4=CC(=O)C=C[C@]4(C)[C@@]3(F)[C@@H](O)C[C@@]12C` [FLUOCINONIDE], the IC50 is reported as “Not Active”.
